Ends that are not written are not given here.
What was measured:
V. cholerae [1] = assay: SYTOX Green membrane damage, single-cell imaging; type: cell-based, Vibrio cholerae; details: for Number of fluorescent cells: V. cholerae, 25, 50 or 100 nM peptide (Fig. S4; legend says SYTOX Green)
Procedure: To better understand the membrane blebbing event, V. cholerae was treated with B22 in the presence of SYTOX Green and imaged on agarose pads to stabilize cells with compromised envelopes. SYTOX Green is a fluorescent nucleic acid stain that is impermeant to live cells and is used to distinguish dead or dying cells in a population ([17]). Cells were treated with a sublethal (1 μM) concentration of B22 in order to visualize physiological changes in susceptible and unaffected cells simultaneously. Time-lapse phase-contrast imaging was used to monitor tip-to-tip cell length and membrane integrity.
SYTOX Green (Invitrogen, Carlsbad, CA, USA) uptake was used to monitor the effect of the AMPs on bacterial membranes. Mid-log cells were resuspended in CAMHB to 1 × 10^6 CFU/ml and seeded into microfluidic chambers as described above. The cells were then flushed with medium containing 0.1 μM SYTOX Green for 5 min. The same medium was used for control cells, while the medium for treatment samples also included AMP at the indicated concentration. Fluorescence was detected by microscopy as described earlier using the GFP filter set.

S. aureus [2] = assay: CellROX ROS production, imaging; type: cell-based, Staphylococcus aureus; details: for CellROX oxidative signal, parental strain: S. aureus WT; for CellROX oxidative signal, parental strain / CellROX oxidative signal, sodA or sodM null mutants: 100 nM, 30 min; for CellROX oxidative signal, sodA or sodM null mutants: S. aureus sodA or sodM
Text: The growth rate of the sodA mutant in the absence of peptide was lower than that of the wild type (WT), underscoring the importance of effectively controlling O2^− accumulation.

E. coli = assay: Growth of cultures (OD600) with sublethal peptide; details: nanomolar (30 nM) peptide, means of four data sets
E. cloacae = assay: Growth of cultures (OD600) with sublethal peptide; details: nanomolar (30 nM) peptide, means of four data sets
S. aureus [3] = assay: Growth of cultures (OD600) with sublethal peptide; type: cell-based, Staphylococcus aureus; details: for Effect on growth of S. aureus cultures: 30 nM peptide, CAMHB, OD600
Procedure: To examine this further, we monitored the growth of S. aureus cultures after the addition of 30 nM B22 or B22a. This concentration is in the biologically relevant range of peptide that is produced by mammals ([13]). […] Cell growth recovered at later time points (data not shown).

Escherichia coli MC4100a = type: cell-based
Procedure: (§1) MICs were determined by using the broth microdilution method based on the general recommendations of the Clinical and Laboratory Standards Institute (CLSI). Bacteria were grown in CAMHB overnight. They were then diluted into fresh medium the following morning and grown to early log phase. The cultures were then diluted to approximately 5 × 10^5 CFU ml^−1, and 100 μl was added to sterile 96-well polypropylene microtiter plates (Corning, NY, USA) preloaded with twofold dilutions of antimicrobial peptides. […] All MIC assays were determined from at least three independent assays.

[4] = test system: Enterobacter cloacae OC4080; type: cell-based
Procedure: as §1

[5] = test system: Escherichia coli J53 AzideR; type: cell-based; details: CAMHB, 16 to 18 h, at least three independent assays
Procedure: as §1

Escherichia coli OC4075 = type: cell-based
Procedure: as §1

[6] = test system: Pseudomonas aeruginosa ATCC 27853; type: cell-based
Procedure: as §1

[7] = test system: Pseudomonas aeruginosa PAO1; type: cell-based
Procedure: as §1

Vibrio cholerae AC53 = type: cell-based; details: CAMHB, 16 to 18 h, at least three independent assays
Procedure: as §1

[8] = test system: Escherichia coli ATCC 35218; type: cell-based
Procedure: as §1

[9] = test system: Klebsiella pneumoniae ATCC 700603; type: cell-based
Procedure: as §1

[10] = test system: Pseudomonas aeruginosa OC4083; type: cell-based
Procedure: as §1

[11] = test system: Klebsiella pneumoniae 88 (NDM1+); type: cell-based
Procedure: as §1

Escherichia coli UTI89 = type: cell-based
Procedure: as §1

[12] = test system: Klebsiella pneumoniae OC4110; type: cell-based
Procedure: as §1

[13] = test system: Pseudomonas aeruginosa PAO1 oprD; type: cell-based; details: CAMHB, 16 to 18 h, at least three independent assays
Procedure: as §1

[14] = test system: Enterobacter cloacae OC4092; type: cell-based
Procedure: as §1

[15] = test system: Klebsiella pneumoniae OC8893; type: cell-based
Procedure: as §1

Vibrio cholerae C6075 = type: cell-based; details: CAMHB, 16 to 18 h, at least three independent assays
Procedure: as §1

[16] = test system: Klebsiella pneumoniae 262 (NDM1+); type: cell-based
Procedure: as §1

Klebsiella pneumoniae C2 = type: cell-based
Procedure: as §1

[17] = test system: Escherichia coli ATCC 25922; type: cell-based
Procedure: as §1

V. cholerae [18] = assay: Single-cell real-time phase-contrast imaging in microfluidic chambers; type: cell-based, Vibrio cholerae; details: 2 μM peptide, continuous flow
Procedure: To better understand the antimicrobial activity of the peptides, we developed a single-cell, real-time imaging assay to monitor the disruption of V. cholerae cells. Bacteria were seeded into microfluidic chambers and grown under continuous flow before imaging by phase-contrast microscopy. Untreated V. cholerae cells retained their characteristic comma shape, cell length (1 by 2 μm), and membrane integrity (Fig. S2). Conversely, cells treated with 2 μM B22 (or B22a) began losing their shape and were noticeably shorter within 30 s (Fig. S2).
Imaging of individual cells was conducted using the CellAsic microfluidic perfusion system (ONIX) with integrated temperature controller and B04A bacterial microfluidic plates (EMD Millipore, Billerica, MA). The CellAsic ONIX FG software (v 5.0.2.0) was used to control flow rate and deliver fresh medium with or without antimicrobial peptide (AMP). The chambers were loaded by perfusion of 50 μl of a 10^6 cells/ml bacterial suspension at 2 lb/in^2 for 15 s to prime the cells followed by 4 lb/in^2 for 15 s to trap the cells. The chamber was then rinsed at 1 lb/in^2 for 30 s followed by 5 lb/in^2 for 5 min. To quickly switch solutions, medium was perfused at 10 lb/in^2 for 10 s, and then flow was reduced to 2 lb/in^2 for the remainder of the imaging.

V. cholerae [19] = assay: Growth of cultures (OD600) with sublethal peptide; details: nanomolar (30 nM) peptide, means of four data sets

Substance | Number of fluorescent cells (V. cholerae [1]) | CellROX oxidative signal, parental strain (S. aureus [2]) | CellROX oxidative signal, sodA or sodM null mutants (S. aureus [2]) | Effect on growth rate (E. coli) | Effect on growth rate (E. cloacae) | Effect on growth of S. aureus cultures (S. aureus [3]) | MIC (Escherichia coli MC4100a) | MIC [4] | MIC (Escherichia coli OC4075) | MIC [6] | MIC [7] | MIC [8] | MIC [9] | MIC [10] | MIC [11] | MIC (Escherichia coli UTI89) | MIC [12] | MIC [14] | MIC [15] | MIC [16] | also measured
FRKKLKKLFKKLSPVIPLLKLG-NH2 [B22a] | increased | weak signal | strong oxidative signal | reproducibly reduced the growth rate | reproducibly reduced the growth rate | reduced the initial growth rate | 4 µM | 4 µM | 2 µM | 2 µM | 2 µM | 2 µM | 2 µM | 2 µM | 2 µM | 2 µM | 2 µM | 4 µM | 2 µM | 4 µM | MIC [5]: 2 µM; MIC (Vibrio cholerae AC53): 4 µM; MIC [13]: 2 µM; MIC (Vibrio cholerae C6075): 4 µM; MIC (Klebsiella pneumoniae C2): 2 µM; MIC [17]: 2 µM; Time until cells began losing shape and were noticeably shorter (V. cholerae [18]): ≤ 30 s; Effect on growth rate (V. cholerae [19]): reproducibly reduced the growth rate
FRKKLKKLFKKLSPVIPLLKLG [B22] | increased | weak signal | strong oxidative signal | reproducibly reduced the growth rate | reproducibly reduced the growth rate | reduced the initial growth rate | 4 µM | 4 µM | 4 µM | 4 µM | 4 µM | 4 µM | 2 µM | 2 µM | 4 µM | 2 µM | 4 µM | 4 µM | 4 µM | 4 µM | Share of population with strong cytoplasmic SYTOX Green signal (V. cholerae [1]; 1 μM (sublethal), agarose pads, SYTOX Green): approximately 35%; Decrease in cell contrast of dying cells (V. cholerae [1]; 1 μM, agarose pads, time-lapse phase contrast): > 90%; CellROX oxidative signal (S. aureus [2]; S. aureus, 500 nM, 2.5 μM CellROX): fluorescent burst; Effect on growth of WT strain (S. aureus [3]; S. aureus WT, 30 nM): slowed the growth; Effect on growth of sodA mutant (S. aureus [3]; S. aureus sodA, 30 nM, compared with WT): to an even greater extent; MIC (Klebsiella pneumoniae C2): 4 µM; MIC [17]: 2 µM; Time until cells began losing shape and were noticeably shorter (V. cholerae [18]): ≤ 30 s; Effect on growth rate (V. cholerae [19]): reproducibly reduced the growth rate
